Laboratory results published in the supplement of paper PMC11208160.

Test: recombinant UMI read abundance after kanamycin selection (control-corrected) (log10(CPM+1)); higher = more efficient recombination; extreme values may be limits of the assay; sequences stand for … in AGTGCAGAGAAAATCGGCCAGTTTTCTCTGCCTGCAGTCCGCATGCCGTGGGACCCCTTGGGTTCTAACCTGTTGCCTAGATTTATGCAGCGGACTGCCTTTCTCCCAAAGTGATAAACCGG…AGGTTGGTTTCACT; site = the 11-nt donor
Procedure, shortened: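 Two replicates each of selected and unselected plating were used in this pooled Escherichia coli screen of donor and donor-binding-loop pairs for the IS621 bridge recombinase. Selection was with IPTG (0.07 mM) and kanamycin. Counts of recombinant UMIs, amplified across the donor–target junction, were converted to CPM, averaged, scaled by control-derived factors and reported as log10(CPM+1).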
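Note: IS621 bridge recombinase in Escherichia coli cells against a fixed T5 target plasmid.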

Row | Sequence | recombinant UMI read abundance (log10)
1 | CGTCTTACATGGACCGGTTTTCCCGGTAATCCGTATTTGTA (site CGTCTTACTTA) | 0.00853
2 | CGTGGAACATGGACCGGTTTTCCCGGTAATCCGTATTTGCT (site CGTGGAACTAA) | 0.202
3 | CGTGGAACATGGACCGGTTTTCCCGGTAATCCGTATTTGCT (site CGTGGAACTAC) | 0.00778
4 | CGTGGAACATGGACCGGTTTTCCCGGTAATCCGTATTTGCT (site CGTGGAACTAG) | 2.18
5 | CGTGGAACATGGACCGGTTTTCCCGGTAATCCGTATTTGCT (site CGTGGAACTAT) | 0.45
6 | CGTGGAACATGGACCGGTTTTCCCGGTAATCCGTATTTGTA (site CGTGGAACTAA) | 0.00446
7 | CGTGGAACATGGACCGGTTTTCCCGGTAATCCGTATTTGTA (site CGTGGAACTCA) | 0.0215
8 | CGTGGAACATGGACCGGTTTTCCCGGTAATCCGTATTTGTA (site CGTGGAACTGA) | 0
9 | CGTGGAACATGGACCGGTTTTCCCGGTAATCCGTATTTGTA (site CGTGGAACTTA) | 2.24
10 | CGTGTTACATGGACCGGTTTTCCCGGTAATCCGTATTTGAT (site CGTGTTACTAT) | 0.962
11 | CGTTAAACATGGACCGGTTTTCCCGGTAATCCGTATTTGAG (site CGTTAAACTCT) | 1.31
12 | CGTTAAACATGGACCGGTTTTCCCGGTAATCCGTATTTGAG (site CGTTACACTCT) | 0
13 | CGTTAAACATGGACCGGTTTTCCCGGTAATCCGTATTTGAG (site CGTTAGACTCT) | 0.00692
14 | CGTTAAACATGGACCGGTTTTCCCGGTAATCCGTATTTGAG (site CGTTATACTCT) | 0.01
15 | CGTTAGACATGGACCGGTTTTCCCGGTAATCCGTATTTGAA (site CGTTAGACTAT) | 0.0102
16 | CGTTAGACATGGACCGGTTTTCCCGGTAATCCGTATTTGAA (site CGTTAGACTCT) | 0.00762
17 | CGTTAGACATGGACCGGTTTTCCCGGTAATCCGTATTTGAA (site CGTTAGACTGT) | 0
18 | CGTTAGACATGGACCGGTTTTCCCGGTAATCCGTATTTGAA (site CGTTAGACTTT) | 1.33
19 | CGTTAGGCATGGACCGGTTTTCCCGGTAATCCGTATTTGCT (site CGTTAGGCTAG) | 0.924

Row | Sequence | recombinant UMI read abundance (log10)
20 | CGTTAGGCATGGACCGGTTTTCCCGGTAATCCGTATTTGCT (site CGTTCGGCTAG) | 0.00474
21 | CGTTAGGCATGGACCGGTTTTCCCGGTAATCCGTATTTGCT (site CGTTGGGCTAG) | 0
22 | CGTTAGGCATGGACCGGTTTTCCCGGTAATCCGTATTTGCT (site CGTTTGGCTAG) | 0.00436
23 | CGTTCGGCATGGACCGGTTTTCCCGGTAATCCGTATTTGTC (site CGTTCGGCTGA) | 0
24 | CGTTGCACATGGACCGGTTTTCCCGGTAATCCGTATTTGGG (site CGTTGCACTCC) | 0.0529
25 | CGTTGGACATGGACCGGTTTTCCCGGTAATCCGTATTTGAG (site CGTTAGACTCT) | 0.878
26 | CGTTGGACATGGACCGGTTTTCCCGGTAATCCGTATTTGAG (site CGTTCGACTCT) | 0.022
27 | CGTTGGACATGGACCGGTTTTCCCGGTAATCCGTATTTGAG (site CGTTGGACTCT) | 1.36
28 | CGTTGGACATGGACCGGTTTTCCCGGTAATCCGTATTTGAG (site CGTTTGACTCT) | 0.0464
29 | CGTTGTCCATGGACCGGTTTTCCCGGTAATCCGTATTTGCT (site CGTTGTCCTAG) | 0.968
30 | CGTTGTTCATGGACCGGTTTTCCCGGTAATCCGTATTTGTA (site CGTTGTTCTTA) | 2.19
31 | CGTTTGGCATGGACCGGTTTTCCCGGTAATCCGTATTTGAT (site CGTTTGGCTAA) | 0.0113
32 | CGTTTGGCATGGACCGGTTTTCCCGGTAATCCGTATTTGAT (site CGTTTGGCTAC) | 0.0714
33 | CGTTTGGCATGGACCGGTTTTCCCGGTAATCCGTATTTGAT (site CGTTTGGCTAG) | 1.09
34 | CGTTTGGCATGGACCGGTTTTCCCGGTAATCCGTATTTGAT (site CGTTTGGCTAT) | 2.22
35 | CTAAACTCATGGACCGGTTTTCCCGGTAATCCGTATTTGAA (site CTAAACTCTTT) | 3.08
36 | CTAACCCCATGGACCGGTTTTCCCGGTAATCCGTATTTGTA (site CTAACCCCTTA) | 1.67
37 | CTAACCGCATGGACCGGTTTTCCCGGTAATCCGTATTTGTT (site CTAACCGCTAA) | 1.6
38 | CTAACTTCATGGACCGGTTTTCCCGGTAATCCGTATTTGCA (site CTAACTTCTTG) | 2.08

Row | Sequence | recombinant UMI read abundance (log10)
39 | CTAAGGGCATGGACCGGTTTTCCCGGTAATCCGTATTTGAT (site CTAAGGGCTAT) | 2.15
40 | CTAATATCATGGACCGGTTTTCCCGGTAATCCGTATTTGAC (site CTAATATCTGT) | 2.69
41 | CTAATATCATGGACCGGTTTTCCCGGTAATCCGTATTTGAC (site CTACTATCTGT) | 0
42 | CTAATATCATGGACCGGTTTTCCCGGTAATCCGTATTTGAC (site CTAGTATCTGT) | 2.29
43 | CTAATATCATGGACCGGTTTTCCCGGTAATCCGTATTTGAC (site CTATTATCTGT) | 1.3
44 | CTAATATCATGGACCGGTTTTCCCGGTAATCCGTATTTGAG (site CTAATATCTCT) | 3.07
45 | CTAATATCATGGACCGGTTTTCCCGGTAATCCGTATTTGAG (site CTAGTATCTGT) | 0
46 | CTAATGACATGGACCGGTTTTCCCGGTAATCCGTATTTGAT (site CTAATGACTAT) | 1.69
47 | CTAATGACATGGACCGGTTTTCCCGGTAATCCGTATTTGCA (site CTAATGACTTG) | 2.01
48 | CTACCAACATGGACCGGTTTTCCCGGTAATCCGTATTTGGA (site CTACAAACTTC) | 0
49 | CTACCAACATGGACCGGTTTTCCCGGTAATCCGTATTTGGA (site CTACCAACTTC) | 0.959
50 | CTACCAACATGGACCGGTTTTCCCGGTAATCCGTATTTGGA (site CTACGAACTTC) | 0
51 | CTACCAACATGGACCGGTTTTCCCGGTAATCCGTATTTGGA (site CTACTAACTTC) | 0.0192
52 | CTACCATCATGGACCGGTTTTCCCGGTAATCCGTATTTGCT (site CGATCATCTAG) | 0
53 | CTACCATCATGGACCGGTTTTCCCGGTAATCCGTATTTGCT (site CTACCATCTAG) | 2.35
54 | CTACCCGCATGGACCGGTTTTCCCGGTAATCCGTATTTGCT (site CTACCCGCTAG) | 1.43
55 | CTACGCACATGGACCGGTTTTCCCGGTAATCCGTATTTGAG (site CTACGCACTCT) | 1.29
56 | CTACGCTCATGGACCGGTTTTCCCGGTAATCCGTATTTGAT (site CTACGCTCTAT) | 2.86
57 | CTACTAACATGGACCGGTTTTCCCGGTAATCCGTATTTGTA (site CTACTAACTTA) | 2.03
